From patent publication US5608143A, “External regulation of gene expression” (E. I. Du Pont de Nemours and Company, priority 1994, dated 1997)

Columns and labels:
[1] = test system: tobacco T2 gene (T2 mRNA); experiment: Northern analysis of T2 mRNA in roots of chemically treated tobacco; assay type: in vivo, N. tabacum (Petite Havana SRI); settings: treated vs control plants
Text: The procedures described for the isolation of the petunia cDNA clone P6.1 in Example 4 were repeated using N. tabacum (Petite Havana SRI) as the starting plant material. Differential screening of the resulting tobacco cDNA library prepared using poly(A)^+ RNA from the roots of N-(aminocarbonyl)-2-chlorobenzenesulfonamide-treated tobacco plants identified a cDNA clone representing an N-(aminocarbonyl)-2-chlorobenzenesulfonamide-inducible mRNA species. This clone was designated T2.
A Northern blot of total RNA from the roots of untreated and N-(aminocarbonyl)-2-chlorobenzenesulfonamide-treated tobacco plants was probed with nick-translated T2.1 to determine the size of the corresponding T2 mRNA. The methods used for these procedures were described in Example 4.

5-2 gene (In 5-2 mRNA) = experiment: RNA slot blot / Northern analysis of 5-2 mRNA in roots of chemically treated corn; assay type: in vivo, corn (Missouri 17); set-up: In5-2 induction level: key to the marks not given beside the values
Experimental: Details of the techniques used to perform Example 3 are presented in Example 1. The cDNA library made from poly (A)+ RNA from the roots of N-(aminocarbonyl)-2-chlorobenzenesulfonamide-treated Missouri 17 corn plants described in Example 1 was analyzed for additional cDNA clones representing N-(aminocarbonyl)-2-chlorobenzenesulfonamide-induced mRNAs. […] This colony was designated In 5-2.
A small scale plasmid preparation was performed on an overnight culture of In 5-2 and an aliquot of the plasmid, designated pIn 5-2, was nick-translated as described earlier. Slot blot analysis was performed as described in Example 1 using nick-translated In 5-2 plasmid. […] This plasmid was designated pIn 5-2.
An aliquot of the small scale plasmid preparation of pIn 5-2 was digested to completion with PSt I and analyzed by agarose gel electrophoresis. The cDNA insert of the plasmid was excised as a single 420 bp Pst I fragment. Plasmid pin 5-2 was nick-translated and used to probe a Northern blot of RNA from both untreated and N-(aminocarbonyl)-2-chlorobenzenesulfonamide-treated roots.
The ability at various substituted benzenesulfonamides and related compound to induce the expression of the 2-1, 2-2, and 5-2 genes of Missouri 17 corn was evaluated. Corn seeds were germinated and grown hydroponically in 2 liter beakers as described in Example 1. On the tenth day, plants were transferred into fresh 0.5× Hoagland's solution containing the chemical to be tested. Root tissue was harvested from the plants after six hours of chemical treatment, quick-frozen by immersion in liquid N2, and stored at -80° C. until analyzed.
Details of the RNA isolation and slot blot analysis procedures are presented in Example 1. Total RNA was prepared from the root tissue of plants that had been treated with various chemicals using the previously described guanidine thiocyanate procedure. Replicate blots, each consisting of 2 μg of total RNA from tissues treated with each of the chemicals shown in tables 8 and 9, were prepared on nitrocellulose membranes using a Minifold II® Slot-blotter (Schleicher & Schuell) following the manufacturer's recommeneded procedure. Replicate blots were prehybridized and hybridized with cDNA probes made by nick translation of the purified cDNA inserts from plasmid pIn 2-1, pIn 2-2-3, and pIn 5-2. Slot blots were washed as described in Example 1 and exposed to Kodak X-OMAT XAR-5 film for 24 hours at -80° C. using a single Du Pont Lightning Plus intensifying screen. Film was developed using a Kodak X-OMAT film processor. The abililty of a chemical to induce the mRNA encoded by the three inducible genes was evaluated in one of two ways. Qualitative evaluation was performed by direct visual comparison of the autoradiographic signal intensities on the films for the hybridization of each probe to the different RNA samples. Quantitative evaluation was performed by cutting each slot containing hybridized RNA from the blot, immersing it in 2 ml of Du Pont ECONOFLUOR® scintillation cocktail and counting the radioactivity in each slot in a scintillation counter. The net amount of radioactivity hybridizing to N-(aminocarbonyl)-2-chlorobenzenesulfonamide-treated RNA after subtraction of radioactivity hybridizing to untreated RNA is presented in Table 15.

[2] = hydroponic treatment, corn roots

NC(=O)NS(=O)(=O)c1ccccc1Cl
hybridization of T2.1 to root RNA (Northern blot) [1]: hybridized to an mRNA of 800 nt | In5-2 induction level (5-2 gene (In 5-2 mRNA); hydroponic application, 100 ppm): +++++ | hybridization of pIn 5-2 to root RNA (Northern blot) (5-2 gene (In 5-2 mRNA); [2]): induced in root tissue by chemical treatment | hybridization of pIn 5-2 to root RNA (slot blot) (5-2 gene (In 5-2 mRNA); [2]): hybridizes strongly
